One assay concerns saos-2 cells. As to the kind of experiment: Anticalcification efficacy in saos-2 cells (osteogenic medium, Alizarin Red staining). To be noted: Homo sapiens, 168 h, test compound 1 µM, 7 days osteogenic medium, Alizarin Red absorbance 540 nm, read-out: calcification inhibition. In kind it is cell-based. A digest of the protocol:
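Saos-2 cells at 80–90% confluence induced for 7 days in osteogenic medium (DMEM, 100 nM dexamethasone, 10 mM β-glycerophosphate, 0.05 mM ascorbic acid), compound (0.5, 1, 5, 10 […]) added with each medium change. Alizarin Red staining eluted with cetylpyridinium chloride, A540 read; inhibition taken against OM-only absorbance.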

In a further assay the target is T1, TNAP (Homo sapiens, UniProt P05186).
T1 sequence (P05186 18-502 limits assumed): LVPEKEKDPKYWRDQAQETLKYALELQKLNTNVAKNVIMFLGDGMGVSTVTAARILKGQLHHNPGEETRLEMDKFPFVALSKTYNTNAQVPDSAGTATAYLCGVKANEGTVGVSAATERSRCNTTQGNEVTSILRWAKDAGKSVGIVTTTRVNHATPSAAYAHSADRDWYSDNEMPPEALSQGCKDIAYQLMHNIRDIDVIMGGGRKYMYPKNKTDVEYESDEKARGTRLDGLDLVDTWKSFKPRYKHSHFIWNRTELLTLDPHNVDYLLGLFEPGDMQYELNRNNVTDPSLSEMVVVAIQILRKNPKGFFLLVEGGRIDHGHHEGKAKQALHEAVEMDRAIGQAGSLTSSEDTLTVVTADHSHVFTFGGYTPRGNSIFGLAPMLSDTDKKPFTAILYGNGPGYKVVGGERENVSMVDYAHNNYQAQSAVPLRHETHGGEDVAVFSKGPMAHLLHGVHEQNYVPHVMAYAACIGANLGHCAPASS
As to the kind of experiment: TNAP inhibitory activity, colorimetric assay (alkaline phosphatase assay kit ab83369, pNPP substrate). In kind it is biochemical. To be noted: TNAP enzyme, 2 hours at room temperature, absorbance 405 nm.

These results are taken from patent EP4806894A1, “TNAP INHIBITORY COMPOUND AND USE THEREOF” (Rednvia Co., Ltd., priority 2023, dated 2025).

Counter-ions that a name gives are not always drawn. Some results are limits rather than exact numbers.

A word on the inhibition: it is the drop in the measured response relative to a control, in per cent. As a reminder, the IC50 is the midpoint of a concentration-inhibition curve.

For the compound `COc1ccc(-c2cnn(C3CCN(C)CC3)c2)cc1S(=O)(=O)Nc1cnc2c(c1)C(=O)NCC2` [Example 65, 2-methoxy-5-(1-(1-methylpiperidine-4-yl)-1H-pyrazole-4-yl)-N-(5-oxo-5,6,7,8-tetrahydro-1,6-naphthyridine-3-yl)benzenesulfonamide], the inhibition at 1 µM in the assay on saos-2 cells is less than 0%. The compound further came in with an IC50 on TNAP of no less than 1000 nM.
As to `CCNC(=O)Cn1cc(-c2ccc(OC)c(S(=O)(=O)Nc3cnc4c(c3)C(=O)NCC4)c2)cn1` [Example 66, N-ethyl-2-(4-(4-methoxy-3-(N-(5-oxo-5,6,7,8-tetrahydro-1,6-naphthyridine-3-yl)sulfamoyl)phenyl)-1H-pyrazole-1-yl)acetamide], the inhibition at 1 µM in the assay on saos-2 cells is less than 0%. The IC50 on TNAP was no less than 1000 nM.
As to `CCNC(=O)CCc1ccc(-c2ccc(OC)c(S(=O)(=O)Nc3cnc4c(c3)C(=O)NCC4)c2)cc1` [Example 67, N-ethyl-3-(4'-methoxy-3'-(N-(5-oxo-5,6,7,8-tetrahydro-1,6-naphthyridine-3-yl)sulfamoyl)-[1,1'-biphenyl]-4-yl)propanamide], the inhibition at 1 µM in the assay on saos-2 cells is 0 to 50%. For the same compound, at TNAP, the IC50 is 100 to 1000 nM.
With `CCOC(=O)Cn1cc(-c2ccc(OC)c(S(=O)(=O)Nc3cnc4c(c3)C(=O)NCC4)c2)cn1` [Example 68, ethyl 2-(4-(4-methoxy-3-(N-(5-oxo-5,6,7,8-tetrahydro-1,6-naphthyridine-3-yl)sulfamoyl)phenyl)-1H-pyrazole-1-yl)acetate], the inhibition at 1 µM in the assay on saos-2 cells is no less than 50%. At TNAP, the IC50 is 10 to 100 nM.
Take `COc1ccc(-c2cnn(C(C)c3nc(C(C)C)no3)c2)cc1S(=O)(=O)Nc1cnc2c(c1)C(=O)NCC2` (stereo not drawn) [Example 69, 5-(1-(1-(3-isopropyl-1,2,4-oxadiazole-5-yl)ethyl)-1H-pyrazole-4-yl)-2-methoxy-N-(5-oxo-5,6,7,8-tetrahydro-1,6-naphthyridine-3-yl)benzenesulfonamide]: the inhibition at 1 µM in the assay on saos-2 cells was less than 0%. On TNAP, this compound had an IC50 of 100 to 1000 nM.
For `COc1ccc(-c2cnn(C(C)c3nc(C)no3)c2)cc1S(=O)(=O)Nc1cnc2c(c1)C(=O)NCC2` (stereo not drawn) [Example 70, 2-methoxy-5-(1-(1-(3-methyl-1,2,4-oxadiazole-5-yl)ethyl)-1H-pyrazole-4-yl)-N-(5-oxo-5,6,7,8-tetrahydro-1,6-naphthyridine-3-yl)benzenesulfonamide] the same measures were no less than 50% and 100 to 1000 nM.
On to `COc1ccc(-c2cnn(C(C)c3nc(-c4ccc(F)cc4)no3)c2)cc1S(=O)(=O)Nc1cnc2c(c1)C(=O)NCC2` (stereo not drawn) [Example 71, 5-(1-(1-(3-(4-fluorophenyl)-1,2,4-oxadiazole-5-yl)ethyl)-1H-pyrazole-4-yl)-2-methoxy-N-(5-oxo-5,6,7,8-tetrahydro-1,6-naphthyridine-3-yl)benzenesulfonamide], for which the inhibition at 1 µM in the assay with saos-2 cells was less than 0%. The IC50 at TNAP was no less than 1000 nM.
Take `COc1ccc(-c2cnn(C(C)C)c2)cc1S(=O)(=O)Nc1cnc2c(c1)C(=O)NCC2` [Example 72, 5-(1-isopropyl-1H-pyrazole-4-yl)-2-methoxy-N-(5-oxo-5,6,7,8-tetrahydro-1,6-naphthyridine-3-yl)benzenesulfonamide]: in the assay with saos-2 cells, the inhibition at 1 µM was no less than 50%. The compound further displayed an IC50 against TNAP of 10 to 100 nM.
As to `COc1ccc(-c2cnn(C(F)(F)F)c2)cc1S(=O)(=O)Nc1cnc2c(c1)C(=O)NCC2` [Example 73, 2-methoxy-N-(5-oxo-5,6,7,8-tetrahydro-1,6-naphthyridine-3-yl)-5-(1-(trifluoromethyl)-1H-pyrazole-4-yl)benzenesulfonamide], the inhibition at 1 µM in the assay with saos-2 cells is no less than 50%. In addition, at TNAP, the IC50 was in the range of 100 to 1000 nM.
On to `COc1ccc(-c2cnn(C3CC3)c2)cc1S(=O)(=O)Nc1cnc2c(c1)C(=O)NCC2` [Example 74, 5-(1-cyclopropyl-1H-pyrazole-4-yl)-2-methoxy-N-(5-oxo-5,6,7,8-tetrahydro-1,6-naphthyridine-3-yl)benzenesulfonamide], for which, in the assay with saos-2 cells, the inhibition at 1 µM was no less than 50%. On TNAP, the IC50 fell in the range of 100 to 1000 nM.
Take `COc1ccc(-c2cnn(S(C)(=O)=O)c2)cc1S(=O)(=O)Nc1cnc2c(c1)C(=O)NCC2` [Example 75, 2-methoxy-5-(1-(methylsulfonyl)-1H-pyrazole-4-yl)-N-(5-oxo-5,6,7,8-tetrahydro-1,6-naphthyridine-3-yl)benzenesulfonamide]: the inhibition at 1 µM in the assay on saos-2 cells was no less than 50%. The IC50 against TNAP was 100 to 1000 nM.
Regarding `COc1ccc(-c2cnn(C3CCOCC3)c2)cc1S(=O)(=O)Nc1cnc2c(c1)C(=O)NCC2` [Example 76, 2-methoxy-N-(5-oxo-5,6,7,8-tetrahydro-1,6-naphthyridine-3-yl)-5-(1-(tetrahydro-2H-pyran-4-yl)-1H-pyrazole-4-yl)benzenesulfonamide], the inhibition at 1 µM in the assay on saos-2 cells was no less than 50%. This compound returned an IC50 against TNAP of 100 to 1000 nM.
`COc1ccc(-c2ccc(F)nc2)cc1S(=O)(=O)Nc1cnc2c(c1)C(=O)NCC2` [Example 77, 5-(6-fluoropyridine-3-yl)-2-methoxy-N-(5-oxo-5,6,7,8-tetrahydro-1,6-naphthyridine-3-yl)benzenesulfonamide]: the inhibition at 1 µM with saos-2 cells is no less than 50%. The compound also showed a concentration for half-maximal inhibition (IC50) on TNAP of 100 to 1000 nM.
With `COc1ccc(-c2cnc(N)nc2C(F)(F)F)cc1S(=O)(=O)Nc1cnc2c(c1)C(=O)NCC2` [Example 78, 5-(2-amino-4-(trifluoromethyl)pyrimidine-5-yl)-2-methoxy-N-(5-oxo-5,6,7,8-tetrahydro-1,6-naphthyridine-3-yl)benzenesulfonamide], the inhibition at 1 µM with saos-2 cells is less than 0%. On TNAP, this compound returned an IC50 of no less than 1000 nM.
For `COc1ccc(-c2cnn(C3COC3)c2)cc1S(=O)(=O)Nc1cnc2c(c1)C(=O)NCC2` [Example 79, 2-methoxy-5-(1-(oxetane-3-yl)-1H-pyrazole-4-yl)-N-(5-oxo-5,6,7,8-tetrahydro-1,6-naphthyridine-3-yl)benzenesulfonamide] the same measures were no less than 50% and 100 to 1000 nM.
On to `COc1ccc(-c2cnn(CCO)c2)cc1S(=O)(=O)Nc1cnc2c(c1)C(=O)NCC2` [Example 80, 5-(1-(2-hydroxyethyl)-1H-pyrazole-4-yl)-2-methoxy-N-(5-oxo-5,6,7,8-tetrahydro-1,6-naphthyridine-3-yl)benzenesulfonamide], for which the inhibition at 1 µM in the assay on saos-2 cells is no less than 50%. The compound also had an IC50 on TNAP of 100 to 1000 nM.
With `COc1ccc(-c2cn(C(C)C)nc2C(F)(F)F)cc1S(=O)(=O)Nc1cnc2c(c1)C(=O)NCC2` [Example 81, 5-(1-isopropyl-3-(trifluoromethyl)-1H-pyrazole-4-yl)-2-methoxy-N-(5-oxo-5,6,7,8-tetrahydro-1,6-naphthyridine-3-yl)benzenesulfonamide], the inhibition at 1 µM in the assay with saos-2 cells is no less than 50%. The compound further registered an IC50 against TNAP of 10 to 100 nM.
Take `CCn1cc(-c2ccc(OC)c(S(=O)(=O)Nc3cnc4c(c3)C(=O)NCC4)c2)c(C(F)(F)F)n1` [Example 82, 5-(1-ethyl-3-(trifluoromethyl)-1H-pyrazole-4-yl)-2-methoxy-N-(5-oxo-5,6,7,8-tetrahydro-1,6-naphthyridine-3-yl)benzenesulfonamide]: the inhibition at 1 µM with saos-2 cells was no less than 50%. In addition, the IC50 on TNAP was no more than 10 nM.
As to `COc1ccc(-c2cnoc2)cc1S(=O)(=O)Nc1cnc2c(c1)C(=O)NCC2` [Example 83, 5-(isoxazole-4-yl)-2-methoxy-N-(5-oxo-5,6,7,8-tetrahydro-1,6-naphthyridine-3-yl)benzenesulfonamide], the inhibition at 1 µM in the assay on saos-2 cells was no less than 50%. The compound also gave an IC50 against TNAP of 10 to 100 nM.
For `COc1ccc(-c2c(C)noc2C)cc1S(=O)(=O)Nc1cnc2c(c1)C(=O)NCC2` [Example 84, 5-(3,5-dimethylisoxazole-4-yl)-2-methoxy-N-(5-oxo-5,6,7,8-tetrahydro-1,6-naphthyridine-3-yl)benzenesulfonamide], in the assay on saos-2 cells, the inhibition at 1 µM is no less than 50%. The same compound returned an IC50 at TNAP of 10 to 100 nM.
For the compound `COc1ccc(-c2cnn(C3CCN(C(=O)OC(C)(C)C)CC3)c2)cc1S(=O)(=O)Nc1cnc2c(c1)C(=O)NCC2` [Example 85, tert-butyl 4-(4-(4-methoxy-3-(N-(5-oxo-5,6,7,8-tetrahydro-1,6-naphthyridine-3-yl)sulfamoyl)phenyl)-1H-pyrazole-1-yl)piperidine-1-carboxylate], the inhibition at 1 µM in the assay on saos-2 cells is less than 0%. This compound also registered an IC50 on TNAP of 100 to 1000 nM.
As for `COc1ccc(-c2cnn(C3CCNCC3)c2)cc1S(=O)(=O)Nc1cnc2c(c1)C(=O)NCC2` [Example 86, 2-methoxy-N-(5-oxo-5,6,7,8-tetrahydro-1,6-naphthyridine-3-yl)-5-(1-(piperidine-4-yl)-1H-pyrazole-4-yl)benzenesulfonamide hydrochloride], the inhibition at 1 µM in the assay on saos-2 cells is less than 0%. For the same compound, the IC50 on TNAP lay within 100 to 1000 nM.
For `COc1ccc(Br)cc1S(=O)(=O)Nc1cnc2c(c1)C(=O)N(C)CC2` [Example 87, 5-bromo-2-methoxy-N-(6-methyl-5-oxo-5,6,7,8-tetrahydro-1,6-naphthyridine-3-yl)benzenesulfonamide], in that order: less than 0% and 100 to 1000 nM.
As for `COc1ccc(Br)cc1S(=O)(=O)Nc1cnc2c(c1)CN(C(=O)OC(C)(C)C)CC2` [Example 88, tert-butyl 3-((5-bromo-2-methoxyphenyl)sulfonamido)-7,8-dihydro-1,6-naphthyridine-6(5H)-carboxylate], in the assay with saos-2 cells, the inhibition at 1 µM was no less than 50%. This compound yielded an IC50 against TNAP of 100 to 1000 nM.
